Laboratory results from US9708340B2, “Urea derivatives and their use as fatty-acid binding protein (FABP) inhibitors” (Hoffmann-La Roche Inc., priority 2013, dated 2017).
pIC50: −log10 of the molar value.

Experiments:
ob/ob mice = settings: cited from earlier work
ApoE KO mice = settings: cited from earlier work
mice under HF diet = settings: cited from earlier work
human FABP5 (huFABP5) = human FABP5 (huFABP5) (Homo sapiens (Human), UniProt Q01469); test: Tb TR-FRET assay, binding of Bodipy labeled fatty acid to His6 tagged huFABP5; settings: 50 nM FABP protein, […] Bodipy labeled fatty acid; read-out: IC50 h-fabp5-ecoli-r
human FABP4 (huFABP4) = human FABP4 (huFABP4) (Homo sapiens (Human), UniProt P15090); test: Tb TR-FRET assay, binding of Bodipy labeled fatty acid to His6 tagged huFABP4; settings: 50 nM FABP protein, […] Bodipy labeled fatty acid; read-out: IC50 h-fabp4-ecoli-r
human FABP4 (huFABP4), sequence (P15090 whole entry): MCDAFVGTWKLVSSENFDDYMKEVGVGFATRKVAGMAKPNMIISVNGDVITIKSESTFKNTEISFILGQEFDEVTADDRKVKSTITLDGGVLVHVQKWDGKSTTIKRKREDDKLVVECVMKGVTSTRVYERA

human FABP5 (huFABP5), sequence (Q01469 whole entry): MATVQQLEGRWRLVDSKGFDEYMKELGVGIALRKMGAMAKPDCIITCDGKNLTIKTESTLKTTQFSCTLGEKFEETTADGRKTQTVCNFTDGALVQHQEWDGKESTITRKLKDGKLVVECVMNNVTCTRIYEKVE

Question: With `CCc1c(-c2ccccc2)c(-c2ccccc2)nn1-c1ccccc1-c1cccc(OCC(=O)O)c1` [BMS309403] as the molecule, how does the “glucose uptake in muscle and adipose” value (ob/ob mice; clamp study in ob/ob mice) read?
Answer: increased

Question: What about the hepatic glucose production (ob/ob mice; clamp study in ob/ob mice) of the same molecule?
Answer: reduction

Question: And the “body weight and energy consumption” value (ob/ob mice; ob/ob mice)?
Answer: no change

Question: And the hepatic steatosis (ob/ob mice; ob/ob mice)?
Answer: reduction

Question: What about the atherosclerotic placques formation (ApoE KO mice) of the same molecule?
Answer: decrease

Question: With `O=C(O)[C@H]1CCCN1C(=O)Nc1ccccc1Oc1ccccc1` [Compound 3] as the molecule, how does the “insulin and glucose tolerance” value (mice under HF diet) read?
Answer: no improvement

Question: And the “plasma triglyceride and free fatty acid” value (mice under HF diet)?
Answer: reduction

Question: With `O=C(O)[C@H]1CCN1C(=O)Nc1cc(Cl)ccc1-c1ccc(F)cc1F` [Example 63, (R)-1-(4-chloro-2′,4′-difluorobiphenyl-2-ylcarbamoyl)azetidine-2-carboxylic acid] as the molecule, how does the pIC50 (human FABP5 (huFABP5)) read?
Answer: < 4.30

Question: And the pIC50 (human FABP4 (huFABP4))?
Answer: 7.52

Question: With `COc1cc(Cl)cc(NC(=O)N2CC[C@@H]2C(=O)O)c1-c1ccc(F)cc1` [Example 64, (R)-1-(4-chloro-4′-fluoro-6-methoxybiphenyl-2-ylcarbamoyl)azetidine-2-carboxylic acid] as the molecule, how does the pIC50 (human FABP5 (huFABP5)) read?
Answer: 5.18

Question: And the pIC50 (human FABP4 (huFABP4))?
Answer: 7.70
